In patent publication US12139486B2, “Octahydro fused azadecalin glucocorticoid receptor modulators” (Corcept Therapeutics, Inc., priority 2013, dated 2024):

Columns and labels:
glucocorticoid receptor = target: T1, glucocorticoid receptor (Homo sapiens, UniProt P04150); assay: HepG2 Tyrosine Aminotransferase (TAT) Assay; format: cell-based
T1 construct: endogenous in cells; host or cells: HepG2
T1 sequence (P04150 1-777): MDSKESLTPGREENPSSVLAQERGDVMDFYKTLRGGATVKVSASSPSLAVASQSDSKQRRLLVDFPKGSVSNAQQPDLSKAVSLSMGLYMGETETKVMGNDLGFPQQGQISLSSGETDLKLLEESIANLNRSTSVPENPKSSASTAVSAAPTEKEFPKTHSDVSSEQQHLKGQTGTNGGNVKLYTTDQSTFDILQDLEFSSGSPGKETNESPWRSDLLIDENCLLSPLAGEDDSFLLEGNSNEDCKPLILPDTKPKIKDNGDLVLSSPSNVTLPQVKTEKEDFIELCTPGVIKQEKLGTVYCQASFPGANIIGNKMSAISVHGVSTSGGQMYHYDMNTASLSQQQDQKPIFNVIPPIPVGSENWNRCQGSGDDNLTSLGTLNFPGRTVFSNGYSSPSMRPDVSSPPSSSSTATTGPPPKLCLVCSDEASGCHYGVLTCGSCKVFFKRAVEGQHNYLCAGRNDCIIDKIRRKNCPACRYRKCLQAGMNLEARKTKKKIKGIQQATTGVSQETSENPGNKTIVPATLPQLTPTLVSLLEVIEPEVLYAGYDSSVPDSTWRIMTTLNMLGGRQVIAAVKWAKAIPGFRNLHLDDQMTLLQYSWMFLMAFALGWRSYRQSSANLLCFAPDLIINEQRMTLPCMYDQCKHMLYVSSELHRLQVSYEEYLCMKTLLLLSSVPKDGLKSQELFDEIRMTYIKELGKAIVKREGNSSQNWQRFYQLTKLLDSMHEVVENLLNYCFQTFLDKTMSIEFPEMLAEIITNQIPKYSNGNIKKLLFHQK
Method: Glucocorticoid mediated activation of TAT occurs by transactivation of glucocorticoid response elements in the TAT promoter by glucocorticoid receptor-agonist complex.
HepG2 cells were cultured using MEME media supplemented with 10% (v/v) foetal bovine serum; 2 mM L-glutamine and 1% (v/v) NEAA at 37° C., 5%/95% (v/v) CO2/air.
Compounds were serially half log diluted in 100% (v/v) dimethylsulphoxide from a 10 mM stock.
HepG2 cells were then lysed with 30 μl of cell lysis buffer containing a protease inhibitor cocktail for 15 minutes at 4° C. […] After 2 hours incubation at 37° C. the reaction was terminated by the addition of 15 μl of 10 M aqueous potassium hydroxide solution, and the plates incubated for a further 30 minutes at 37° C.
[compound] and fitting the data to a 4 parameter logistic equation.

human recombinant GR = target: T2, human recombinant GR (Homo sapiens, UniProt P04150); assay: Human Glucocorticoid Receptor (GR) Fluorescence Polarisation (FP) Binding Assay; details: Ki from IC50 by ligand depletion correction; displacement of Fluorome GS Red
T2 construct: purchased PanVera P2812
T2 sequence (P04150 1-777): T1 sequence (P04150 1-777)
Method: The following is a description of a FP assay for measuring compound inhibition of labelled glucocorticoid binding to the human recombinant GR.
The binding affinity of test compounds was determined using a FP binding assay using human recombinant GR (PanVera P2812) and a fluorescent labelled glucocorticoid ligand (Fluorome GS Red) (PanVera P2894). The presence of inhibitors prevents the formation of a GS Red/GR complex resulting in a decrease in the measured polarisation value. The change in polarisation value in the presence of test compounds is used to calculate the binding affinity of the compound for GR.
This assay was performed in 384 well, black, round-bottom, polypropylene micro titre plates in a final volume of 20 μl. The assay contained 5 μl 1 nM GR (final concentration), 5 μl 0.5 nM Fluorome GS Red (final concentration) in the presence of 10p test compounds. Positive control wells (high polarisation) receive, 10 μl 2% (v:v) DMSO vehicle (1% (v/v) final concentration)+5 μl 1 nM GR and 5 μl 0.5 nM Fluorome GS Red. […] Assay blank background wells (used for normalisation) receive 15 μl 1×GS screening buffer+5 μl GR.
For the IC50 determination (concentration of compound that displaces 50% of the bound GS Red), compounds were tested at eight different concentrations in duplicate in two independently performed experiments. Compounds were prepared as solubilised solids at 10 mM in DMSO. On the day of assay, an 8 point half-log serial dilution (55 μl DMSO+25 μl compound solution) was prepared. A 1:50 dilution (1 μl compound solution+49 μl 1×GR screening buffer) was prepared for each compound. The compounds were prepared at 2× final assay concentration.
The plates were mixed and incubated for 4 hour at room temperature. FP was measured using an Envision Excite plate reader with 535 nm excitation and 590 nm emission interference filters.
Milli-polarisation (mP) values were calculated using the below equation: mP=1000*(S−G*P)/(S+G*P) where S and P are assay blank background subtracted fluorescence units, G=G-factor (1.07).
Compound IC50 values were calculated by plotting a [compound] v. % inhibition curve and fitting the data to a 4-parameter logistic fit equation.
10×GR screening buffer (100 mM potassium phosphate pH 7.4, 200 mM Na2MoO4, 1 mM EDTA, 20% (v/v) DMSO). To prepare 1×GR screening buffer, combine 1 ml 10×GR screening buffer (PanVera P2814)+1 ml stabilising peptide (PanVera P2815)+7.95 ml 4° C. MQ water. Add 50p 1M DTT, vortex and place on ice until use.

Row | SMILES | Ki (glucocorticoid receptor) [nM] | Ki (human recombinant GR) [nM]
1 | O=C(c1ccccn1)[C@]12Cc3cnn(-c4ccc(F)cc4)c3C[C@@H]1CCN(S(=O)(=O)c1ccc(C(F)(F)F)cc1)C2 [Example 1A, ((4aR,8aS)-1-(4-fluorophenyl)-6-((4-(trifluoromethyl)phenyl)sulfonyl)-4,4a,5,6,7,8,8a,9-octahydro-1H-pyrazolo[3,4-g]isoquinolin-4a-yl)(pyridin-2-yl)methanone] | 20 to 100 | 0.5 to 1
2 | O=C(c1ccccn1)[C@]12Cc3cnn(-c4ccc(F)cc4)c3C[C@@H]1CCN(S(=O)(=O)c1ccc(Cl)c(Cl)c1)C2 [Example 1B, ((4aR,8aS)-6-((3,4-dichlorophenyl)sulfonyl)-1-(4-fluorophenyl)-4,4a,5,6,7,8,8a,9-octahydro-1H-pyrazolo[3,4-g]isoquinolin-4a-yl)(pyridin-2-yl)methanone] | 20 to 100 | > 1
3 | O=C(c1ccccn1)[C@]12Cc3cnn(-c4ccc(F)cc4)c3C[C@@H]1CCN(S(=O)(=O)c1ccc(F)c(F)c1)C2 [Example 1C, ((4aR,8aS)-6-((3,4-difluorophenyl)sulfonyl)-1-(4-fluorophenyl)-4,4a,5,6,7,8,8a,9-octahydro-1H-pyrazolo[3,4-g]isoquinolin-4a-yl)(pyridin-2-yl)methanone] | 20 to 100 | > 1
4 | CCn1ncc(S(=O)(=O)N2CC[C@H]3Cc4c(cnn4-c4ccc(F)cc4)C[C@]3(C(=O)c3ccccn3)C2)n1 [Example 2AB, ((4aR,8aS)-6-((2-ethyl-2H-1,2,3-triazol-4-yl)sulfonyl)-1-(4-fluorophenyl)-4,4a,5,6,7,8,8a,9-octahydro-1H-pyrazolo[3,4-g]isoquinolin-4a-yl)(pyridin-2-yl)methanone] | 20 to 100 | < 0.5
5 | CC(C)n1ncc(S(=O)(=O)N2CC[C@H]3Cc4c(cnn4-c4ccc(F)cc4)C[C@]3(C(=O)c3cc(C(F)(F)F)ccn3)C2)n1 [Example 2AD, ((4aR,8aS)-1-(4-fluorophenyl)-6-((2-isopropyl-2H-1,2,3-triazol-4-yl)sulfonyl)-4,4a,5,6,7,8,8a,9-octahydro-1H-pyrazolo[3,4-g]isoquinolin-4a-yl)(4-(trifluoromethyl)pyridin-2-yl)methanone] | < 20 | < 0.5
6 | O=C(c1cscn1)[C@]12Cc3cnn(-c4ccc(F)cc4)c3C[C@@H]1CCN(S(=O)(=O)c1cccc(C(F)(F)F)n1)C2 [Example 2AH, ((4aR,8aS)-1-(4-fluorophenyl)-6-((6-(trifluoromethyl)pyridin-2-yl)sulfonyl)-4,4a,5,6,7,8,8a,9-octahydro-1H-pyrazolo[3,4-g]isoquinolin-4a-yl)(thiazol-4-yl)methanone] | < 20 | 0.5 to 1
7 | Cn1ncc(S(=O)(=O)N2CC[C@H]3Cc4c(cnn4-c4ccc(F)cc4)C[C@]3(C(=O)c3cscn3)C2)n1 [Example 2AI, ((4aR,8aS)-1-(4-fluorophenyl)-6-((2-methyl-2H-1,2,3-triazol-4-yl)sulfonyl)-4,4a,5,6,7,8,8a,9-octahydro-1H-pyrazolo[3,4-g]isoquinolin-4a-yl)(thiazol-4-yl)methanone] | 20 to 100 | > 1
8 | CC(C)n1ncc(S(=O)(=O)N2CC[C@H]3Cc4c(cnn4-c4ccc(F)cc4)C[C@]3(C(=O)c3cscn3)C2)n1 [Example 2AJ, ((4aR,8aS)-1-(4-fluorophenyl)-6-((2-isopropyl-2H-1,2,3-triazol-4-yl)sulfonyl)-4,4a,5,6,7,8,8a,9-octahydro-1H-pyrazolo[3,4-g]isoquinolin-4a-yl)(thiazol-4-yl)methanone] | < 20 | < 0.5

The next lines start with the values.

Row | Ki (glucocorticoid receptor) [nM] | Ki (human recombinant GR) [nM] | SMILES
9 | < 20 | < 0.5 | CCCn1ncc(S(=O)(=O)N2CC[C@H]3Cc4c(cnn4-c4ccc(F)cc4)C[C@]3(C(=O)c3ccccn3)C2)n1 [Example 2A, ((4aR,8aS)-1-(4-fluorophenyl)-6-((2-propyl-2H-1,2,3-triazol-4-yl)sulfonyl)-4,4a,5,6,7,8,8a,9-octahydro-1H-pyrazolo[3,4-g]isoquinolin-4a-yl)(pyridin-2-yl)methanone]
10 | 20 to 100 | < 0.5 | CC(C)n1cc(S(=O)(=O)N2CC[C@H]3Cc4c(cnn4-c4ccc(F)cc4)C[C@]3(C(=O)c3ccccn3)C2)cn1 [Example 2AA, ((4aR,8aS)-1-(4-fluorophenyl)-6-((1-isopropyl-1H-pyrazol-4-yl)sulfonyl)-4,4a,5,6,7,8,8a,9-octahydro-1H-pyrazolo[3,4-g]isoquinolin-4a-yl)(pyridin-2-yl)methanone]
11 | 20 to 100 | > 1 | Cn1ncc(S(=O)(=O)N2CC[C@H]3Cc4c(cnn4-c4ccc(F)cc4)C[C@]3(C(=O)c3ccccn3)C2)n1 [Example 2AC, ((4aR,8aS)-1-(4-fluorophenyl)-6-((2-methyl-2H-1,2,3-triazol-4-yl)sulfonyl)-4,4a,5,6,7,8,8a,9-octahydro-1H-pyrazolo[3,4-g]isoquinolin-4a-yl)(pyridin-2-yl)methanone]
12 | > 100 | > 1 | O=C(c1cc(C(F)(F)F)ccn1)[C@]12Cc3cnn(-c4ccc(F)cc4)c3C[C@@H]1CCN(S(=O)(=O)c1cn[nH]n1)C2 [Example 2AE, ((4aR,8aS)-6-((2H-1,2,3-triazol-4-yl)sulfonyl)-1-(4-fluorophenyl)-4,4a,5,6,7,8,8a,9-octahydro-1H-pyrazolo[3,4-g]isoquinolin-4a-yl)(4-(trifluoromethyl)pyridin-2-yl)methanone]
13 | 20 to 100 | > 1 | CC(C)n1cc(S(=O)(=O)N2CC[C@H]3Cc4c(cnn4-c4ccc(F)cc4)C[C@]3(C(=O)c3ccccn3)C2)nn1 [Example 2AF, ((4aR,8aS)-1-(4-fluorophenyl)-6-((1-isopropyl-1H-1,2,3-triazol-4-yl)sulfonyl)-4,4a,5,6,7,8,8a,9-octahydro-1H-pyrazolo[3,4-g]isoquinolin-4a-yl)(pyridin-2-yl)methanone]
14 | 20 to 100 | 0.5 to 1 | O=C(c1nccs1)[C@]12Cc3cnn(-c4ccc(F)cc4)c3C[C@@H]1CCN(S(=O)(=O)c1cccc(C(F)(F)F)n1)C2 [Example 2AG, ((4aR,8aS)-1-(4-fluorophenyl)-6-((6-(trifluoromethyl)pyridin-2-yl)sulfonyl)-4,4a,5,6,7,8,8a,9-octahydro-1H-pyrazolo[3,4-g]isoquinolin-4a-yl)(thiazol-2-yl)methanone]
15 | < 20 |  | CCn1ncc(S(=O)(=O)N2CC[C@H]3Cc4c(cnn4-c4ccc(F)cc4)C[C@]3(C(=O)c3cscn3)C2)n1 [Example 2AK, ((4aR,8aS)-6-((2-ethyl-2H-1,2,3-triazol-4-yl)sulfonyl)-1-(4-fluorophenyl)-4,4a,5,6,7,8,8a,9-octahydro-1H-pyrazolo[3,4-g]isoquinolin-4a-yl)(thiazol-4-yl)methanone]
